Data published in US11866518B2, “Bicyclic peptide ligands specific for TSLP” (BicycleTx Limited, priority 2020, dated 2024).
*1 amine or outer side, *2 acyl side, *3 side chain or, on linkers, in order; H or OH if unused. Where a SMILES comes first, the peptide text is derived from it. Bridges are numbered along the chain shown (N, C = ends). TATA = O=C(CC[*:1])N1CN(C(=O)CC[*:2])CN(C(=O)CC[*:3])C1

Molecular target: TSLP (Homo sapiens, UniProt Q969D9)
Assay: Human TSLP Surface Plasmon Resonance (SPR) binding assay
Parameters: The resulting construct spCD33-6×HN-TEV-hTSLP(29-159)-Avi; 6xHN tag with TEV site (N, cleaved yes); made in house; host or cells: Expi293F cells
Settings: biotinylated human TSLP immobilized on streptavidin chip; 20° C.; steady-state or kinetic 1:1 fit; read-out: hTSLP SPR Kd

Chain of TSLP (Q969D9 29-159): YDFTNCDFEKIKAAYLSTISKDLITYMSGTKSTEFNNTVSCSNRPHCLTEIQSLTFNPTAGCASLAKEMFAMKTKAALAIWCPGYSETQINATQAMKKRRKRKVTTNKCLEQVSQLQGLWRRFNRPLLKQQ

**Q.** With `CC(=O)N[C@H]1CSCCC(=O)N2CN3CN(C2)C(=O)CCSC[C@H](NC(=O)[C@H](CC(=O)O)NC(=O)[C@H](CCC(=O)O)NC(=O)[C@H](CC(C)C)NC(=O)[C@H](Cc2c[nH]c4ccc(F)cc24)NC(=O)[C@H](CCC(N)=O)NC1=O)C(=O)N[C@@H](Cc1c[nH]c2ccc(F)cc12)C(=O)N[C@@H](CCCNC(=N)N)C(=O)NCC(=O)N[C@@H](Cc1ccc(F)cc1)C(=O)N[C@H](C(N)=O)CSCCC3=O` [Example 21, Ac-(SEQ ID NO: 19)] as the compound, how does the Kd read?
**A.** 0.0092 µM

**Q.** Which Kd does the source give for `CC(=O)N[C@H]1CSCCC(=O)N2CN3CN(C2)C(=O)CCSC[C@H](NC(=O)[C@H](CC(=O)O)NC(=O)[C@H](CCC(=O)O)NC(=O)[C@H](CC(C)C)NC(=O)[C@H](Cc2c[nH]c4ccccc24)NC(=O)[C@H](CCC(N)=O)NC1=O)C(=O)N[C@@H](Cc1c[nH]c2ccccc12)C(=O)N[C@@H](CCCNC(=N)N)C(=O)NCC(=O)N[C@@H](Cc1ccc(Br)cc1)C(=O)N[C@H](C(N)=O)CSCCC3=O` [Example 26, Ac-(SEQ ID NO: 24)] here?
**A.** 0.011 µM

**Q.** With `CC(=O)N[C@H]1CSCCC(=O)N2CN3CN(C2)C(=O)CCSC[C@H](NC(=O)[C@H](CC(=O)O)NC(=O)[C@H](CCC(=O)O)NC(=O)[C@H](CC(C)C)NC(=O)[C@H](Cc2c[nH]c4ccccc24)NC(=O)[C@H](CCC(N)=O)NC1=O)C(=O)N[C@@H](Cc1c[nH]c2ccccc12)C(=O)N[C@@H](CCCNC(=N)N)C(=O)NCC(=O)N[C@@H](Cc1cc(F)c(F)c(F)c1)C(=O)N[C@H](C(N)=O)CSCCC3=O` [Example 37, Ac-(SEQ ID NO: 33)] as the compound, how does the Kd read?
**A.** 0.019 µM

**Q.** How did the Kd turn out when `CC(=O)N[C@H]1CSCCC(=O)N2CN3CN(C2)C(=O)CCSC[C@H](NC(=O)[C@H](CC(=O)O)NC(=O)[C@H](CCC(=O)O)NC(=O)[C@H](CC(C)C)NC(=O)[C@H](Cc2c[nH]c4ccccc24)NC(=O)[C@H](CCC(N)=O)NC1=O)C(=O)N[C@@H](Cc1c[nH]c2ccccc12)C(=O)N[C@@H](CCCNC(=N)N)C(=O)NCC(=O)N[C@@H](Cc1ccc(Cl)c(F)c1)C(=O)N[C@H](C(N)=O)CSCCC3=O` [Example 41, Ac-(SEQ ID NO: 37)] was run?
**A.** 0.024 µM

**Q.** `CC(C)C[C@@H]1NC(=O)[C@H](Cc2c[nH]c3ccccc23)NC(=O)[C@H](CCC(N)=O)NC(=O)[C@@H](N)CSCCC(=O)N2CN3CN(C2)C(=O)CCSC[C@H](NC(=O)[C@H](CC(=O)O)NC(=O)[C@H](CCC(=O)O)NC1=O)C(=O)N[C@@H](Cc1c[nH]c2ccccc12)C(=O)N[C@@H](CCCNC(=N)N)C(=O)NCC(=O)N[C@@H](Cc1ccc(F)cc1)C(=O)N[C@H](C(=O)O)CSCCC3=O` [Example 48, (SEQ ID NO: 15)-COOH] was tested. Which Kd did it give?
**A.** 0.033 µM

**Q.** `CC(=O)N[C@H]1CSCCC(=O)N2CN3CN(C2)C(=O)CCSC[C@H](NC(=O)[C@H](CC(=O)O)NC(=O)[C@H](CCC(=O)O)NC(=O)[C@H](CC(C)C)NC(=O)[C@H](Cc2c[nH]c4ccccc24)NC(=O)[C@H](CCC(N)=O)NC1=O)C(=O)N[C@@H](Cc1c[nH]c2ccccc12)C(=O)N[C@@H](CCCNC(=N)N)C(=O)NCC(=O)N[C@@H](Cc1ccccc1)C(=O)N[C@H](C(=O)N[C@@H](C)C(=O)N1CCC[C@H]1C(=O)N[C@@H](CC(=O)O)C(=O)N[C@@H](CCC(=O)O)C(=O)N[C@@H](CCCNC(=N)N)C(=O)N[C@@H](CC(=O)O)C(N)=O)CSCCC3=O` [Example 54, Ac-(SEQ ID NO: 38)-APDERD] was tested. Which Kd did it give?
**A.** 0.046 µM

**Q.** `CC(C)C[C@@H]1NC(=O)[C@H](Cc2c[nH]c3ccccc23)NC(=O)[C@H](CCC(N)=O)NC(=O)[C@@H](NC(=O)[C@H](C)N)CSCCC(=O)N2CN3CN(C2)C(=O)CCSC[C@H](NC(=O)[C@H](CC(=O)O)NC(=O)[C@H](CCC(=O)O)NC1=O)C(=O)N[C@@H](Cc1c[nH]c2ccccc12)C(=O)N[C@@H](CCCNC(=N)N)C(=O)NCC(=O)N[C@@H](Cc1ccccc1)C(=O)N[C@H](C(=O)N[C@@H](CC(=O)O)C(=O)N[C@@H](CC(=O)O)C(=O)N[C@@H](C)C(=O)N[C@@H](Cc1c[nH]cn1)C(=O)N[C@@H](C)C(=O)N1CCC[C@H]1C(N)=O)CSCCC3=O` [Example 55, A-(SEQ ID NO: 38)-DDAHAP] was tested. Which Kd did it give?
**A.** 0.047 µM

**Q.** `CC(=O)N[C@H]1CSCCC(=O)N2CN3CN(C2)C(=O)CCSC[C@H](NC(=O)[C@H](CC(=O)O)NC(=O)[C@H](CCC(=O)O)NC(=O)[C@H](CC(C)C)NC(=O)[C@H](Cc2c[nH]c4ccccc24)NC(=O)[C@H](CCC(N)=O)NC1=O)C(=O)N[C@@H](Cc1c[nH]c2ccccc12)C(=O)N[C@@H](CCCNC(=N)N)C(=O)NCC(=O)N[C@@H](Cc1cc(F)c(Cl)c(F)c1)C(=O)N[C@H](C(N)=O)CSCCC3=O` [Example 58, Ac-(SEQ ID NO: 46)] was tested. Which Kd did it give?
**A.** 0.052 µM

**Q.** For `CC(C)C[C@@H]1NC(=O)[C@H](Cc2c[nH]c3ccccc23)NC(=O)[C@H](CCC(N)=O)NC(=O)[C@@H](NC(=O)[C@@H](NC(=O)[C@H](CCCNC(=N)N)NC(=O)[C@H](CCC(N)=O)NC(=O)[C@H](CCC(=O)O)NC(=O)[C@H](CC(=O)O)NC(=O)[C@@H](N)CO)[C@@H](C)O)CSCCC(=O)N2CN3CN(C2)C(=O)CCSC[C@H](NC(=O)[C@H](CC(=O)O)NC(=O)[C@H](CCC(=O)O)NC1=O)C(=O)N[C@@H](Cc1c[nH]c2ccccc12)C(=O)N[C@@H](CCCNC(=N)N)C(=O)NCC(=O)N[C@@H](Cc1ccccc1)C(=O)N[C@H](C(=O)N[C@@H](C)C(N)=O)CSCCC3=O` [Example 61, SDEQRT-(SEQ ID NO: 38)-A], which Kd is on record?
**A.** 0.062 µM

**Q.** For `CC(C)C[C@@H]1NC(=O)[C@H](Cc2c[nH]c3ccccc23)NC(=O)[C@H](CCC(N)=O)NC(=O)[C@@H](NC(=O)CNC(=O)[C@@H](NC(=O)[C@H](CCC(=O)O)NC(=O)[C@H](CC(=O)O)NC(=O)[C@@H](NC(=O)[C@@H](N)CCCNC(=N)N)[C@@H](C)O)[C@@H](C)O)CSCCC(=O)N2CN3CN(C2)C(=O)CCSC[C@H](NC(=O)[C@H](CC(=O)O)NC(=O)[C@H](CCC(=O)O)NC1=O)C(=O)N[C@@H](Cc1c[nH]c2ccccc12)C(=O)N[C@@H](CCCNC(=N)N)C(=O)NCC(=O)N[C@@H](Cc1ccccc1)C(=O)N[C@H](C(=O)N[C@@H](C)C(N)=O)CSCCC3=O` [Example 67, RTDETG-(SEQ ID NO: 38)-A], which Kd is on record?
**A.** 0.075 µM

**Q.** How did the Kd turn out when `CC(=O)N[C@H]1CSCCC(=O)N2CN3CN(C2)C(=O)CCSC[C@H](NC(=O)[C@H](CC(=O)O)NC(=O)[C@H](CCC(=O)O)NC(=O)[C@H](CC(C)C)NC(=O)[C@H](Cc2cccc4ccccc24)NC(=O)[C@H](CCC(N)=O)NC1=O)C(=O)N[C@@H](Cc1c[nH]c2ccccc12)C(=O)N[C@@H](CCCNC(=N)N(C)C)C(=O)NCC(=O)N[C@@H](Cc1ccc(F)cc1)C(=O)N[C@H](C(=O)O)CSCCC3=O` [Example 69, Ac-(SEQ ID NO: 34)-COOH] was run?
**A.** 0.077 µM

**Q.** With `CC(C)C[C@@H]1NC(=O)[C@H](Cc2c[nH]c3ccccc23)NC(=O)[C@H](CCC(N)=O)NC(=O)[C@@H](NC(=O)[C@H](CCC(=O)O)NC(=O)[C@H](CC(C)C)NC(=O)[C@H](CC(N)=O)NC(=O)[C@H](CC(N)=O)NC(=O)[C@@H](NC(=O)[C@@H](N)CCC(=O)O)[C@@H](C)O)CSCCC(=O)N2CN3CN(C2)C(=O)CCSC[C@H](NC(=O)[C@H](CC(=O)O)NC(=O)[C@H](CCC(=O)O)NC1=O)C(=O)N[C@@H](Cc1c[nH]c2ccccc12)C(=O)N[C@@H](CCCNC(=N)N)C(=O)NCC(=O)N[C@@H](Cc1ccccc1)C(=O)N[C@H](C(=O)N[C@@H](C)C(N)=O)CSCCC3=O` [Example 71, ETNNLE-(SEQ ID NO: 38)-A] as the compound, how does the Kd read?
**A.** 0.082 µM

**Q.** `CC(=O)N[C@H]1CSCCC(=O)N2CN3CN(C2)C(=O)CCSC[C@H](NC(=O)[C@H](CC(=O)O)NC(=O)[C@H](CCC(=O)O)NC(=O)[C@H](CC(C)C)NC(=O)[C@H](Cc2c[nH]c4ccccc24)NC(=O)[C@H](CCC(N)=O)NC1=O)C(=O)N[C@@H](Cc1c[nH]c2ccccc12)C(=O)N[C@@H](CCCNC(=N)N)C(=O)NCC(=O)N[C@@H](Cc1ccc(C(F)(F)F)cc1)C(=O)N[C@H](C(N)=O)CSCCC3=O` [Example 77, Ac-(SEQ ID NO: 58)] was tested. Which Kd did it give?
**A.** 0.093 µM

**Q.** With `CC(=O)N[C@H]1CSCCC(=O)N2CN3CN(C2)C(=O)CCSC[C@H](NC(=O)[C@H](CC(=O)O)NC(=O)[C@H](CCC(=O)O)NC(=O)[C@H](CC(C)C)NC(=O)[C@H](Cc2c[nH]c4ccccc24)NC(=O)[C@H](CCC(N)=O)NC1=O)C(=O)N[C@@H](Cc1c[nH]c2ccccc12)C(=O)N[C@@H](CCCC[N+](C)(C)C)C(=O)NCC(=O)N[C@@H](Cc1ccccc1)C(=O)N[C@H](C(N)=O)CSCCC3=O` [Example 81, Ac-(SEQ ID NO: 61)] as the compound, how does the Kd read?
**A.** 0.1 µM

**Q.** Which Kd does the source give for `CC(C)C[C@@H]1NC(=O)[C@H](Cc2c[nH]c3ccccc23)NC(=O)[C@H](CCC(N)=O)NC(=O)[C@@H](N)CSCCC(=O)N2CN3CN(C2)C(=O)CCSC[C@H](NC(=O)[C@H](CC(=O)O)NC(=O)[C@H](CCC(=O)O)NC1=O)C(=O)N[C@@H](Cc1c[nH]c2ccccc12)C(=O)N[C@@H](CCCNC(N)=O)C(=O)NCC(=O)N[C@@H](Cc1ccccc1)C(=O)N[C@H](C(N)=O)CSCCC3=O` [Example 102, (SEQ ID NO: 76)] here?
**A.** 0.17 µM

**Q.** `CC(C)C[C@@H]1NC(=O)[C@H](Cc2c[nH]c3ccccc23)NC(=O)[C@H](CC(N)=O)NC(=O)[C@@H](NC(=O)[C@H](C)N)CSCCC(=O)N2CN3CN(C2)C(=O)CCSC[C@H](NC(=O)[C@H](CC(=O)O)NC(=O)[C@H](CCC(=O)O)NC1=O)C(=O)N[C@@H](Cc1c[nH]c2ccccc12)C(=O)N[C@@H](Cc1c[nH]cn1)C(=O)NCC(=O)N[C@@H](Cc1ccccc1)C(=O)N[C@H](C(=O)N[C@@H](Cc1c[nH]cn1)C(=O)N[C@@H](CCC(=O)O)C(=O)N[C@@H](CCC(=O)O)C(N)=O)CSCCC3=O` [Example 125, A-(SEQ ID NO: 89)-HEE] (H-ACNWLEDCWHGFCHEE-NH2; linker 2-8-13 via TATA) was tested. Which Kd did it give?
**A.** 0.3 µM

**Q.** With `CC(C)C[C@@H]1NC(=O)[C@H](Cc2c[nH]c3ccccc23)NC(=O)[C@H](CCC(N)=O)NC(=O)[C@@H](N)CSCCC(=O)N2CN3CN(C2)C(=O)CCSC[C@H](NC(=O)[C@H](CC(=O)O)NC(=O)[C@H](CCC(=O)O)NC1=O)C(=O)N[C@@H](Cc1c[nH]c2ccccc12)C(=O)N[C@@H](CCCNC(=N)N)C(=O)NCC(=O)N[C@@H](Cc1ccccc1)C(=O)N[C@H](C(=O)N[C@@H](CC(=O)O)C(=O)N[C@H](C(=O)N[C@@H](CO)C(=O)N[C@H](C(=O)N[C@@H](Cc1c[nH]cn1)C(=O)N[C@@H](CO)C(N)=O)[C@@H](C)O)[C@@H](C)O)CSCCC3=O` [Example 128, (SEQ ID NO: 38)-DTSTHS] (H-CQWLEDCWRGFCDTSTHS-NH2; linker 1-7-12 via TATA) as the compound, how does the Kd read?
**A.** 0.38 µM
